Measurements: the NIST ThermoML archive (doi:10.1016/j.tca.2010.04.025)
“And” between values parts separate entries of the source, which are not always exact repeats. Equal values may be shown once.

Key:
[1] = 101 kPa, Liquid; for speed of sound: Linear variable-path acoustic interferometer; for mass density: Pycnometric method
[2] = xn = mol fraction of the nth substance listed; details: 101 kPa, Liquid; for speed of sound: Linear variable-path acoustic interferometer; for mass density: Pycnometric method

CCNc1ccccc1 [N-ethylaminobenzene]
[1]
Details	mass density [kg/m3]	speed of sound [m/s]
303.15 K	951.9	1497
313.15 K	944.3	1462
323.15 K	935.9	1431

CCNc1ccccc1 [N-ethylaminobenzene] + C1CCOC1
[2]
Details	mass density, 303.15 K [kg/m3]	mass density, 313.15 K [kg/m3]	mass density, 323.15 K [kg/m3]	speed of sound, 303.15 K [m/s]	speed of sound, 313.15 K [m/s]	speed of sound, 323.15 K [m/s]
x2 = 0	951.9	944.3	935.9	1497	1462	1431
x2 = 0.0904	947.8	940.8	932.8	1482	1450	1420
x2 = 0.1892	943.8	936.7	929.1	1469	1435	1404
x2 = 0.2849	939.5	932.4	925.2	1452	1418	1388
x2 = 0.3819	934.5	927.6	920.6	1433	1399	1367
x2 = 0.4674	929.3	922.6	915.7	1414	1379	1346
x2 = 0.5758	921.9	915.2	908.1	1387	1351	1317
x2 = 0.6778	913.1	906.4	899.5	1360	1323	1286
x2 = 0.7876	902.1	895.4	887.7	1326	1287	1250
x2 = 0.8903	890.8	882.8	874.2	1291	1251	1215

CNc1ccccc1 [N-methylaniline]
[1]
Details	mass density [kg/m3]	speed of sound [m/s]
303.15 K	978.2	1548
313.15 K	969.8	1512
323.15 K	961	1477

CNc1ccccc1 [N-methylaniline] + C1CCOC1
[2]
Details	mass density, 303.15 K [kg/m3]	mass density, 313.15 K [kg/m3]	mass density, 323.15 K [kg/m3]	speed of sound, 303.15 K [m/s]	speed of sound, 313.15 K [m/s]	speed of sound, 323.15 K [m/s]
x2 = 0	978.2	969.8	961	1548	1512	1477
x2 = 0.0831	973.1	964.9	956.6	1528	1493	1459
x2 = 0.1864	966	958.3	949.9	1502	1466	1433
x2 = 0.2813	959.1	951.4	943.4	1478	1442	1407
x2 = 0.3782	951.5	944	935.8	1453	1416	1381
x2 = 0.4714	943.5	936	927.4	1428	1390	1354
x2 = 0.5746	933.2	926	916.9	1396	1358	1322
x2 = 0.6956	919.4	912.2	902.6	1357	1318	1282
x2 = 0.7823	908.2	900.8	891.1	1329	1289	1252
x2 = 0.8882	893.4	885.7	875.8	1293	1252	1213

Nc1ccccc1 [aniline]
[1]
Details	mass density [kg/m3]	speed of sound [m/s]
303.15 K	1012.8	1615
313.15 K	1004.9	1583
323.15 K	998.4	1558

Nc1ccccc1 [aniline] + C1CCOC1
[2]
Details	mass density, 303.15 K [kg/m3]	mass density, 313.15 K [kg/m3]	mass density, 323.15 K [kg/m3]	speed of sound, 303.15 K [m/s]	speed of sound, 313.15 K [m/s]	speed of sound, 323.15 K [m/s]
x2 = 0	1012.8	1004.9	998.4	1615	1583	1558
x2 = 0.087	1004.4	997.5	991.5	1592	1561	1537
x2 = 0.1803	994.8	988.2	981.6	1565	1531	1510
x2 = 0.2735	984.8	978.5	971.8	1535	1500	1478
x2 = 0.3573	975.4	969.4	962.4	1509	1473	1450
x2 = 0.4556	964.1	957.8	951.6	1476	1440	1417
x2 = 0.5638	950.5	943.9	937.9	1438	1402	1379
x2 = 0.6708	935	928.7	922.6	1393	1359	1334
x2 = 0.8169	910.1	904	898.5	1334	1299	1268
x2 = 0.8812	898.7	892.2	885	1306	1267	1237

C1CCOC1 [tetrahydrofuran]
[1]
Details	mass density	speed of sound [m/s]
303.15 K	877.3 kg/m3	1256
313.15 K	867.2 kg/m3	1212
323.15 K	856.6 kg/m3 and 857.1 kg/m3	1171

C1CCOC1 [tetrahydrofuran] + CCNc1ccccc1
[2], x1 = 1
Details	mass density [kg/m3]	speed of sound [m/s]
303.15 K	877.3	1256
313.15 K	867.2	1212
323.15 K	857.1	1171

C1CCOC1 [tetrahydrofuran] + CNc1ccccc1
[2], x1 = 1
Details	mass density [kg/m3]	speed of sound [m/s]
303.15 K	877.3	1256
313.15 K	867.2	1212
323.15 K	856.6	1171

C1CCOC1 [tetrahydrofuran] + Nc1ccccc1
[2], x1 = 1
Details	mass density [kg/m3]	speed of sound [m/s]
303.15 K	877.3	1256
313.15 K	867.2	1212
323.15 K	856.6	1171
